The values below come from US8288555B2, “Alkene derivatives as sphingosine 1-phosphate (S1P) receptor modulators” (Allergan, Inc., priority 2010, dated 2012).

The assay deals with T1, human S1P4 receptor (Homo sapiens, UniProt O95977).
T1 construct: expressed in transfected cells; membranes used
T1 sequence (O95977 1-384): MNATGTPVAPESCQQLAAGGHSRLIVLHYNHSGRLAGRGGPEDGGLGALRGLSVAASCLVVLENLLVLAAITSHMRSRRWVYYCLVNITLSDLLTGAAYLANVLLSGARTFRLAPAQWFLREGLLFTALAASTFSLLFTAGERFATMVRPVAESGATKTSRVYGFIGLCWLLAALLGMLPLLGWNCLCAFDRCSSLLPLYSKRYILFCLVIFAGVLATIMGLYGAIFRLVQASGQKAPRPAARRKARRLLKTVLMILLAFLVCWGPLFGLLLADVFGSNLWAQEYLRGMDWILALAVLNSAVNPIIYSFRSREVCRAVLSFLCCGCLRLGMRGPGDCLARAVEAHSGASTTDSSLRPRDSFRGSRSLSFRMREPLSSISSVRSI
As to the kind of experiment: GTP γ35S binding assay for S1P4 activity. The assay is classed as biochemical. Conditions: activity potency at the S1P4 receptor from GTP γ35S binding; membranes of cells stably expressing the S1P4 receptor; test compounds 0.08 to 5,000 nM. How it is done: Compounds were synthesized and tested for S1P4 activity using the GTP γ^35S binding assay. These compounds may be assessed for their ability to activate or block activation of the human S1P4 receptor in cells stably expressing the S1P4 receptor.
GTP γ^35S binding was measured in the medium containing (mM) HEPES 25, pH 7.4, MgCl2 10, NaCl 100, dithitothreitol 0.5, digitonin 0.003%, 0.2 nM GTP γ^35S, and 5 μg membrane protein in a volume of 150 μl. Test compounds were included in the concentration range from 0.08 to 5,000 nM unless indicated otherwise. Membranes were incubated with 100 μM 5′-adenylylimmidodiphosphate for 30 min, and subsequently with 10 μM GDP for 10 min on ice. Drug solutions and membrane were mixed, and then reactions were initiated by adding GTP γ^35S and continued for 30 min at 25° C. Reaction mixtures were filtered over Whatman GF/B filters under vacuum, and washed three times with 3 mL of ice-cold buffer (HEPES 25, pH7.4, MgCl2 10 and NaCl 100). Filters were dried and mixed with scintillant, and counted for ^35S activity using a β-counter. Agonist-induced GTP γ^35S binding was obtained by subtracting that in the absence of agonist. Binding data were analyzed using a non-linear regression method. In case of antagonist assay, the reaction mixture contained 10 nM S1P in the presence of test antagonist at concentrations ranging from 0.08 to 5000 nM.
What is called EC50 is the midpoint of the concentration-response curve. The low end stands for greater potency, the high end for weaker potency. On to `CNc1ncccc1-c1noc(/C(=C/c2ccc(C)c(C)c2)c2cccs2)n1` [3-{5-[(Z)-2-(3,4-dimethylphenyl)-1-(2-thienyl)vinyl]-1,2,4-oxadiazol-3-yl}-N-methylpyridin-2-amine], for which the EC50 is 140 nM.

`CNc1ncccc1-c1noc(/C(=C/c2ccc(C)c(C)c2)c2cccc(F)c2)n1` [Compound 5, 3-{5-[(E)-2-(3,4-Dimethylphenyl)-1-(3-fluorophenyl)vinyl]-1,2,4-oxadiazol-3-yl}-N-methylpyridin-2-amine] came in with an EC50 of 375 nM.

The compound `CNc1ncccc1-c1noc(/C(=C/c2ccc(C)c(C)c2)c2cccc(C)c2)n1` [Compound 6, 3-{5-[(E)-2-(3,4-Dimethylphenyl)-1-(3-methylphenyl)vinyl]-1,2,4-oxadiazol-3-yl}-N-methylpyridin-2-amine] showed an EC50 of 2020 nM.

Compound `CNc1ncccc1-c1noc(/C(=C/c2ccc(C)c(C)c2)c2cccc(Cl)c2)n1` [Compound 7, 3-{5-[(E)-1-(3-Chlorophenyl)-2-(3,4-dimethylphenyl)vinyl]-1,2,4-oxadiazol-3-yl}-N-methylpyridin-2-amine] yielded an EC50 of 79.3 nM.

`CNc1ncccc1-c1noc(/C(=C/c2ccc(C)c(C)c2)c2ccsc2)n1` [Compound 8, 3-{5-[(E)-2-(3,4-Dimethylphenyl)-1-(3-thienyl)vinyl]-1,2,4-oxadiazol-3-yl}-N-methylpyridin-2-amine] showed an EC50 of 665 nM.

In the case of `CNc1ncccc1-c1noc(/C(=C/c2ccc(C)cc2)c2cccs2)n1` [Compound 10, N-Methyl-3-{5-[(Z)-2-(4-methylphenyl)-1-(2-thienyl)vinyl]-1,2,4-oxadiazol-3-yl}pyridin-2-amine], the midpoint of the response, the EC50, lay at 635 nM.

Consider `CNc1ncccc1-c1noc(/C(=C/c2ccc(C)c(C)c2)c2cc(F)cc(F)c2)n1` [Compound 14, 3-{5-[(E)-1-(3,5-Difluorophenyl)-2-(3,4-dimethylphenyl)vinyl]-1,2,4-oxadiazol-3-yl}-N-methylpyridin-2-amine], for which the EC50 was 550 nM.

For the compound `CNc1ncccc1-c1noc(/C(=C/c2ccc(C)c(C)c2)c2cccc(OC)c2)n1` [Compound 15, 3-{5-[(E)-2-(3,4-Dimethylphenyl)-1-(3-methoxyphenyl)vinyl]-1,2,4-oxadiazol-3-yl}-N-methylpyridin-2-amine], the response was half-maximal at 1780 nM (EC50).

`CNc1ncccc1-c1noc(/C(=C/c2ccc(C)c(C)c2)c2ccccc2OC)n1` [Compound 16, 3-{5-[(E)-2-(3,4-Dimethylphenyl)-1-(2-methoxyphenyl)vinyl]-1,2,4-oxadiazol-3-yl}-N-methylpyridin-2-amine] gave a concentration giving a half-maximal response (EC50) of 501 nM.

In turn, `CNc1ncccc1-c1noc(/C(=C/c2ccccc2C)c2cccc(Cl)c2)n1` [Compound 20, 3-{5-[(E)-1-(3-Chlorophenyl)-2-(2-methylphenyl)vinyl]-1,2,4-oxadiazol-3-yl}-N-methylpyridin-2-amine] came in with an EC50 of 2000 nM.
